Experimental data reported in the supplement of paper PMC10307832.

Key:
Assay in all cases: relative viability (nuclei count vs DMSO), 5 days (fraction); higher = more cells survive
[1] = compound: C1=CC=C(C(=C1)C2=CC=C(C=C2)C3=CSC4=C3C(=C(C(=O)N4)C#N)O)O + Cc1nc(Nc2ncc(C(=O)Nc3c(C)cccc3Cl)s2)cc(N2CCN(CCO)CC2)n1 [Dasatinib] (partner 0.075 µM)
How it was run: (§1)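 Cells from lung cancer lines were seeded into 1536-well plates and, one day later, dosed by pin tool. Treatments were either a single drug or a fixed dose of an anchor drug with five library-drug doses (not always all listed) in √10 steps. After 5 days, nuclei were stained in a one-step fixation (final 0.05% Triton X-100, 1% formaldehyde, 1 ug/ml Hoechst) and counted on 4× images, and relative viability is the treated-to-vehicle nuclei ratio, as the median of duplicate plates.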

[2] = compound: CC1=CN2C(=O)C=C(N=C2C(=C1)C(C)NC3=CC=CC=C3)N4CCOCC4 [TGX 221] + Cc1nc(Nc2ncc(C(=O)Nc3c(C)cccc3Cl)s2)cc(N2CCN(CCO)CC2)n1 [Dasatinib] (partner 0.075 µM)
How it was run: as §1

[3] = compound: O=C(CCCCCCNC(=O)c1cnc(N(c2ccccc2)c2ccccc2)nc1)NO [Ricolinostat] + CS(=O)(=O)CCNCc1ccc(-c2ccc3ncnc(Nc4ccc(OCc5cccc(F)c5)c(Cl)c4)c3c2)o1 [Lapatinib] (partner 2 µM)
How it was run: as §1

[4] = compound: O=C(CCCCCCNC(=O)c1cnc(N(c2ccccc2)c2ccccc2)nc1)NO [Ricolinostat] + N=C(N)NC(=N)NCCc1ccccc1 [Phenformin] (partner 250 µM)
How it was run: as §1

Cell Line: A-427
- relative viability ([1]; first compound 0.08 µM): 0.645
- relative viability ([1]; first compound 0.253 µM): 0.67
- relative viability ([1]; first compound 0.8 µM): 0.716
- relative viability ([1]; first compound 2.53 µM): 0.658
- relative viability ([1]; first compound 8 µM): 0.619
- relative viability ([2]; first compound 0.08 µM): 0.696
- relative viability ([2]; first compound 0.253 µM): 0.735
- relative viability ([2]; first compound 0.8 µM): 0.671
- relative viability ([2]; first compound 2.53 µM): 0.657
- relative viability ([2]; first compound 8 µM): 0.692
- relative viability ([3]; first compound 0.08 µM): 0.892
- relative viability ([3]; first compound 0.253 µM): 1.01
- relative viability ([3]; first compound 0.8 µM): 0.897
- relative viability ([3]; first compound 2.53 µM): 1.02
- relative viability ([4]; first compound 0.253 µM): 0.303
- relative viability ([4]; first compound 0.8 µM): 0.298
- relative viability ([4]; first compound 2.53 µM): 0.337

Cell Line: NCI-H1975
- relative viability ([1]; first compound 0.08 µM): 0.327
- relative viability ([1]; first compound 0.253 µM): 0.369
- relative viability ([1]; first compound 0.8 µM): 0.345
- relative viability ([1]; first compound 2.53 µM): 0.333
- relative viability ([1]; first compound 8 µM): 0.37
- relative viability ([2]; first compound 0.08 µM): 0.347
- relative viability ([2]; first compound 0.253 µM): 0.335
- relative viability ([2]; first compound 0.8 µM): 0.318
- relative viability ([2]; first compound 2.53 µM): 0.345
- relative viability ([2]; first compound 8 µM): 0.343
- relative viability ([3]; first compound 0.08 µM): 0.878
- relative viability ([3]; first compound 0.253 µM): 0.914
- relative viability ([3]; first compound 2.53 µM): 0.664
- relative viability ([4]; first compound 0.08 µM): 0.377
- relative viability ([4]; first compound 0.253 µM): 0.413
- relative viability ([4]; first compound 0.8 µM): 0.396
- relative viability ([4]; first compound 2.53 µM): 0.401

Cell Line: HCC-827
- relative viability ([1]; first compound 0.08 µM): 0.315
- relative viability ([1]; first compound 0.253 µM): 0.469
- relative viability ([1]; first compound 0.8 µM): 0.313
- relative viability ([1]; first compound 2.53 µM): 0.403
- relative viability ([1]; first compound 8 µM): 0.224
- relative viability ([2]; first compound 0.08 µM): 0.28
- relative viability ([2]; first compound 0.253 µM): 0.296
- relative viability ([2]; first compound 0.8 µM): 0.387
- relative viability ([2]; first compound 2.53 µM): 0.273
- relative viability ([2]; first compound 8 µM): 0.15
- relative viability ([3]; first compound 0.08 µM): 0.173
- relative viability ([3]; first compound 0.253 µM): 0.184
- relative viability ([3]; first compound 0.8 µM): 0.173
- relative viability ([3]; first compound 2.53 µM): 0.155
- relative viability ([4]; first compound 0.08 µM): 0.345
- relative viability ([4]; first compound 0.253 µM): 0.4
- relative viability ([4]; first compound 0.8 µM): 0.396
- relative viability ([4]; first compound 2.53 µM): 0.435

Cell Line: UMC-11
- relative viability ([1]; first compound 0.08 µM): 0.328
- relative viability ([1]; first compound 0.253 µM): 0.432
- relative viability ([1]; first compound 0.8 µM): 0.573
- relative viability ([1]; first compound 2.53 µM): 0.524
- relative viability ([1]; first compound 8 µM): 0.374
- relative viability ([2]; first compound 0.08 µM): 0.481
- relative viability ([2]; first compound 0.253 µM): 0.437
- relative viability ([2]; first compound 0.8 µM): 0.436
- relative viability ([2]; first compound 2.53 µM): 0.535
- relative viability ([2]; first compound 8 µM): 0.492
- relative viability ([3]; first compound 0.08 µM): 0.699
- relative viability ([3]; first compound 0.253 µM): 0.944
- relative viability ([3]; first compound 0.8 µM): 0.906
- relative viability ([3]; first compound 2.53 µM): 0.314
- relative viability ([4]; first compound 0.08 µM): 0.273
- relative viability ([4]; first compound 0.253 µM): 0.344
- relative viability ([4]; first compound 0.8 µM): 0.271
- relative viability ([4]; first compound 2.53 µM): 0.194

Cell Line: NCI-H3122
- relative viability ([1]; first compound 0.08 µM): 1
- relative viability ([1]; first compound 0.253 µM): 0.715
- relative viability ([1]; first compound 0.8 µM): 0.91
- relative viability ([1]; first compound 2.53 µM): 0.829
- relative viability ([1]; first compound 8 µM): 0.721
- relative viability ([2]; first compound 0.08 µM): 0.931
- relative viability ([2]; first compound 0.253 µM): 0.83
- relative viability ([2]; first compound 0.8 µM): 0.865
- relative viability ([2]; first compound 2.53 µM): 0.794
- relative viability ([2]; first compound 8 µM): 0.872
- relative viability ([3]; first compound 0.08 µM): 0.972
- relative viability ([3]; first compound 0.253 µM): 1.01
- relative viability ([3]; first compound 0.8 µM): 1.07
- relative viability ([3]; first compound 2.53 µM): 0.973
- relative viability ([4]; first compound 0.253 µM): 0.378
- relative viability ([4]; first compound 0.8 µM): 0.369
- relative viability ([4]; first compound 2.53 µM): 0.318

Cell Line: LXF-289
- relative viability ([1]; first compound 0.08 µM): 0.185
- relative viability ([1]; first compound 0.253 µM): 0.188
- relative viability ([1]; first compound 0.8 µM): 0.223
- relative viability ([1]; first compound 2.53 µM): 0.23
- relative viability ([1]; first compound 8 µM): 0.231
- relative viability ([2]; first compound 0.08 µM): 0.209
- relative viability ([2]; first compound 0.253 µM): 0.254
- relative viability ([2]; first compound 0.8 µM): 0.194
- relative viability ([2]; first compound 2.53 µM): 0.18
- relative viability ([2]; first compound 8 µM): 0.203
- relative viability ([3]; first compound 0.08 µM): 0.847
- relative viability ([3]; first compound 0.253 µM): 0.907
- relative viability ([3]; first compound 0.8 µM): 0.897
- relative viability ([3]; first compound 2.53 µM): 0.731
- relative viability ([4]; first compound 0.08 µM): 0.495
- relative viability ([4]; first compound 0.253 µM): 0.463
- relative viability ([4]; first compound 0.8 µM): 0.538
- relative viability ([4]; first compound 2.53 µM): 0.529

Cell Line: NCI-H647
- relative viability ([1]; first compound 0.08 µM): 0.153
- relative viability ([1]; first compound 0.253 µM): 0.189
- relative viability ([1]; first compound 0.8 µM): 0.191
- relative viability ([1]; first compound 2.53 µM): 0.183
- relative viability ([1]; first compound 8 µM): 0.1
- relative viability ([2]; first compound 0.08 µM): 0.189
- relative viability ([2]; first compound 0.253 µM): 0.145
- relative viability ([2]; first compound 0.8 µM): 0.15
- relative viability ([2]; first compound 2.53 µM): 0.163
- relative viability ([2]; first compound 8 µM): 0.136
- relative viability ([3]; first compound 0.08 µM): 0.915
- relative viability ([3]; first compound 0.253 µM): 1.11
- relative viability ([3]; first compound 0.8 µM): 1.07
- relative viability ([3]; first compound 2.53 µM): 0.627
- relative viability ([4]; first compound 0.08 µM): 0.397
- relative viability ([4]; first compound 0.253 µM): 0.512
- relative viability ([4]; first compound 0.8 µM): 0.563
- relative viability ([4]; first compound 2.53 µM): 0.275
